From patent US20230219911A1, “BENZOTHIAZOLE DERIVATIVES AND USES THEREOF” (SHENYANG PHARMACEUTICAL UNIVERSITY, priority 2020, published 2023)

Molecular target: T1, sEH enzyme (human recombinant) (Homo sapiens, UniProt P34913)
T1 construct: purchased Cayman Chemical
T1 sequence (P34913 1-555): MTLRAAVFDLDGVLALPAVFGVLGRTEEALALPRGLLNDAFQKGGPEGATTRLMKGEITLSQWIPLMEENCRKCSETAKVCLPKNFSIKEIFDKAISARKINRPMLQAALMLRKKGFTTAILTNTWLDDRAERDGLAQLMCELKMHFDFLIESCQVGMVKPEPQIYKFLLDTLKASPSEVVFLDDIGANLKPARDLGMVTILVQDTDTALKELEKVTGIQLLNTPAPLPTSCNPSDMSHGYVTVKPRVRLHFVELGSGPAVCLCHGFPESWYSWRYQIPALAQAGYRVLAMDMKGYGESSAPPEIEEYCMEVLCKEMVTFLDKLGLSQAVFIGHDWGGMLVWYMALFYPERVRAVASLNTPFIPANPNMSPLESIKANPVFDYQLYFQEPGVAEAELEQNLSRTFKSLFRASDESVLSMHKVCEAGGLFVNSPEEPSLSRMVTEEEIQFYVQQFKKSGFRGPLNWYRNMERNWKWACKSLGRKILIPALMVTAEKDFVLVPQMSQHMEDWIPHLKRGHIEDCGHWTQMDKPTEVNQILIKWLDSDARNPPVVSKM
Experiment: in vitro sEH enzyme activity by fluorescence analysis, single concentration inhibition
Format: biochemical
Settings: compound 0.1 μM; human recombinant sEH; PHOME substrate; 37° C. 15 min; read-out: sEH % inhibition, @ 0.1 μM
Procedure: The benzothiazole skeleton compounds (concentration: 0.1 μM) according to the above formula I of the present invention were tested for the in vitro sEH enzyme activity by fluorescence analysis.
12 μL of sEH enzyme (human recombinant, 0.5 mg/mL, Cayman Chemical) was diluted with 588 μL of buffer (25 mM bis-Tris, pH 7.0). The fluorescent substrate was PHOME (cyano-(6-methoxy-naphthalen-2-yl)-methyl (3-phenyl-oxiranyl)-acetate) in DMSO (10 μM, Cayman Chemical). The compound to be tested was dissolved in 100% DMSO at a concentration of 4 μM. 185 μL of buffer (25 mM bis-Tris, pH 7.0), 5 μL of compound solution, and 5 μL of diluted sEH enzyme were added to the wells of a 96-well plate, and finally 5 μL of substrate solution was added to initiate the reaction. After incubating at 37° C. for 15 min, the fluorescence signal was measured with a microplate reader (excitation wavelength 330 nm, emission wavelength 465 nm).
Inhibition (%)=(F0−F1)/(F0)×100.

Compound	inhibition at 0.1 µM [%]
Nc1nc2ccc(N(CCN3CCOCC3)C(=O)Nc3cccc4ccccc34)cc2s1 [Example 15, 1-(2-aminobenzo[d]thiazol-6-yl)-1-[2-(4-morpholinyl)ethyl]-3-(naphthalen-1-yl)urea]	39
CC(=O)Nc1nc2ccc(N(CCN3CCOCC3)C(=O)Nc3ccc(C)cc3)cc2o1 [Example 36, 1-(2-acetamidobenzo[d]oxazol-6-yl)-1-[2-(4-morpholinyl)ethyl]-3-(4-methylphenyl)urea]	45.6
CCNc1nc2ccc(N(CCN3CCOCC3)C(=O)Nc3ccc(F)cc3)nc2s1 [Example 39, 1-[2-(ethylamino)thiazo[5,4-b]pyridin-5-yl]-1-[2-(4-morpholinyl)ethyl]-3-(4-fluorophenyl)urea]	41.5
Nc1nc2ccc(N(CCN3CCOCC3)C(=O)Nc3ccc(OC(F)(F)F)cc3)cc2s1 [Example 17, 1-(2-aminobenzo[d]thiazol-6-yl)-1-[2-(4-morpholinyl)ethyl]-3-(4-trifluoromethoxyphenyl)urea]	70.3
CC(C)(C)OC(=O)Nc1nc2ccc(N(CCN3CCOCC3)C(=O)Cc3ccc(Cl)cc3)cc2s1 [Example 31, tert-butyl (6-{2-(4-chlorophenyl)-N-[2-(4-morpholinyl)ethyl]acetamido}benzo[d]thiazol-2-yl)carbamate]	70.9
O=C(Nc1nc2ccc(N(CCN3CCOCC3)C(=O)Nc3ccc(Cl)cc3)cc2s1)c1ccccc1 [Example 32, 1-(2-phenylformamidobenzo[d]thiazol-6-yl)-1-[2-(4-morpholinyl)ethyl]-3-(4-chlorophenyl)urea]	77.6
Cc1ccc(NC(=O)N(CCN2CCOCC2)c2ccc3nc(NC(=O)Cc4ccccc4)oc3c2)cc1 [Example 37, 1-(2-phenylacetamidobenzo[d]oxazol-6-yl)-1-[2-(4-morpholinyl)ethyl]-3-(4-methylphenyl)urea]	66.8
O=C(Cc1ccccc1)Nc1nc2ccc(N(CCN3CCOCC3)C(=O)Nc3ccc(C(F)(F)F)cc3)cc2s1 [Example 34, 1-(2-phenylacetamidobenzo[d]thiazol-6-yl)-1-[2-(4-morpholinyl)ethyl]-3-(4-trifluoromethylphenyl)urea]	32.5
Nc1nc2cnc(N(CCN3CCOCC3)C(=O)Nc3cccnc3)nc2s1 [Example 44, 1-(2-aminothiazo[5,4-d]pyrimidin-5-yl)-1-[2-(4-morpholinyl)ethyl]-3-(pyridin-3-yl)urea]	55.9
O=C(CCc1ccccc1)Nc1nc2ccc(N(CCN3CCOCC3)C(=O)Nc3ccc(Cl)cc3)cc2s1 [Example 33]	15.8
CCOC(=O)CNc1nc2cnc(N(CCN3CCOCC3)C(=O)Nc3ccc(OC(F)(F)F)cc3)cc2s1 [Example 43]	78.2
Nc1nc2cnc(N(CCN3CCOCC3)C(=O)Nc3ccc(OC(F)(F)F)cc3)cc2s1 [Example 41, 1-(2-aminothiazo[4,5-c]pyridin-6-yl)-1-[2-(4-morpholinyl)ethyl]-3-(4-trifluoromethoxyphenyl)urea]	34.7
Nc1nc2ccc(N(CCN3CCOCC3)C(=O)Nc3ccc(F)cc3)nc2s1 [Example 38, 1-(2-aminothiazo[5,4-b]pyridin-5-yl)-3-(4-fluorophenyl)-1-[2-(4-morpholinyl)ethyl]urea]	57.2
CC(=O)Nc1nc2cnc(N(CCN3CCOCC3)C(=O)Nc3cccnc3)nc2s1 [Example 45, 1-(2-acetamidothiazo[5,4-d]pyrimidin-5-yl)-1-[2-(4-morpholinyl)ethyl]-3-(pyridin-3-yl)urea]	45.2
O=C(CCc1ccccc1)Nc1nc2cnc(N(CCN3CCOCC3)C(=O)Nc3cccnc3)nc2s1 [Example 46]	67.9
O=C(NCc1ccccc1)Nc1nc2ncc(N(CCN3CCOCC3)C(=O)Nc3ccc(Br)c(F)c3)cc2s1 [Example 47, 1-[2-(3-benzylureido)thiazo[4,5-b]pyridin-6-yl]-1-[2-(4-morpholinyl)ethyl]-3-(4-bromo-3-fluorophenyl)urea]	32.5
Cc1ccc(NC(=O)N(CCN2CCOCC2)c2ccc3nc(N)oc3c2)cc1 [Example 35, 1-(2-aminobenzo[d]oxazol-6-yl)-1-[2-(4-morpholinyl)ethyl]-3-(4-methylphenyl)urea]	10.3
O=C(Nc1nc2cnc(N(CCN3CCOCC3)C(=O)Nc3ccc(OC(F)(F)F)cc3)cc2s1)C1CC1 [Example 42, 1-(2-cyclopropylformamidothiazo[4,5-c]pyridin-6-yl)-1-[2-(4-morpholinyl)ethyl]-3-(4-trifluoromethoxyphenyl)urea]	52.1
CCOC(=O)Nc1nc2ccc(N(CCN3CCOCC3)C(=O)Nc3ccc(Cl)cc3)cc2s1 [Example 28, 1-[2-(2-ethoxyformamido)benzo[d]thiazol-6-yl]-1-[2-(4-morpholinyl)ethyl]-3-(4-chlorophenyl)urea]	90.5

More lines, now with the values ahead:

inhibition at 0.1 µM [%]	Compound
76.6	CC(C)Oc1ccc(NC(=O)N(CCN2CCOCC2)c2ccc3nc(N)sc3c2)cc1 [Example 19, 1-(2-aminobenzo[d]thiazol-6-yl)-1-[2-(4-morpholinyl)ethyl]-3-(4-isopropoxyphenyl)urea]
43.7	CN1CCN(CCN(C(=O)Nc2ccc(C(F)(F)F)cc2)c2ccc3nc(N)sc3c2)CC1 [Example 23, 1-(2-aminobenzo[d]thiazol-6-yl)-1-[2-(4-methylpiperazin-1-yl)ethyl]-3-(4-trifluoromethylphenyl)urea]
19.2	Nc1nc2ccc(N(CCN3CCOCC3)C(=O)Nc3ccc([N+](=O)[O-])cc3)cc2s1 [Example 8, 1-(2-aminobenzo[d]thiazol-6-yl)-1-[2-(4-morpholinyl)ethyl]-3-(4-nitrophenyl)urea]
86.2	CCN(CC)CCN(C(=O)Nc1ccc(Cl)cc1)c1ccc2nc(N)sc2c1 [Example 21, 1-(2-aminobenzo[d]thiazol-6-yl)-1-[2-(N,N-diethylamino)ethyl]-3-(4-chlorophenyl)urea]
28.2	CC(=O)c1ccc(NC(=O)N(CCN2CCOCC2)c2ccc3nc(N)sc3c2)cc1 [Example 9, 1-(2-aminobenzo[d]thiazol-6-yl)-1-[2-(4-morpholinyl)ethyl]-3-(4-acetylphenyl)urea]
47	Nc1nc2ccc(NC(=O)NCc3ccc(Cl)cc3)cc2s1 [Example 5, 1-(2-aminobenzo[d]thiazol-6-yl)-3-(4-chlorobenzyl)urea]
36.5	Nc1nc2ccc(N(CCCN3CCOCC3)C(=O)Nc3ccc(Cl)cc3)cc2s1 [Example 26, 1-(2-aminobenzo[d]thiazol-6-yl)-1-[3-(4-morpholinyl)propyl]-3-(4-chlorophenyl)urea]
16.2	Nc1nc2ccc(N(CCN3CCOCC3)C(=O)Nc3ccccn3)cc2s1 [Example 14, 1-(2-aminobenzo[d]thiazol-6-yl)-1-[2-(4-morpholinyl)ethyl]-3-(pyridin-2-yl)urea]
28.4	Nc1nc2ccc(N(CCN3CCCC3)C(=O)Nc3ccc(Cl)cc3)cc2s1 [Example 24, 1-(2-aminobenzo[d]thiazol-6-yl)-1-[2-(pyrrolidin-1-yl)ethyl]-3-(4-chlorophenyl)urea]
67.5	CC1CCN(CCN(C(=O)Nc2ccc(Cl)cc2)c2ccc3nc(N)sc3c2)CC1 [Example 22, 1-(2-aminobenzo[d]thiazol-6-yl)-1-[2-(4-methylpiperidin-1-yl)ethyl]-3-(4-chlorophenyl)urea]
11.7	NC(=O)Nc1ccc2nc(N)sc2c1 [Example 2, 1-(2-aminobenzo[d]thiazol-6-yl)urea]
75.2	CC(C)c1ccc(NC(=O)N(CCN2CCOCC2)c2ccc3nc(N)sc3c2)cc1 [Example 20, 1-(2-aminobenzo[d]thiazol-6-yl)-1-[2-(4-morpholinyl)ethyl]-3-(4-isopropylphenyl)urea]
2.16	CC(=O)Nc1ccc(NC(=O)N(CCN2CCOCC2)c2ccc3nc(N)sc3c2)cc1 [Example 10, 1-(2-aminobenzo[d]thiazol-6-yl)-1-[2-(4-morpholinyl)ethyl]-3-(4-acetamidophenyl)urea]
2.15	Nc1nc2ccc(NC(=O)NC3CCCCC3)cc2s1 [Example 6, 1-(2-aminobenzo[d]thiazol-6-yl)-3-cyclohexylurea]
32.9	Nc1nc2ccc(NC(=O)Nc3ccccc3)cc2s1 [Example 3, 1-(2-aminobenzo[d]thiazol-6-yl)-3-phenylurea]
